According to patent US12195505B2, “Treatment of cystic fibrosis by delivery of nebulized mRNA encoding CFTR” (Translate Bio, Inc., priority 2018, dated 2025):

System: human bronchial epithelial cells
Experiment: Ussing chamber assay, Forskolin-induced chloride channel activity
Type: cell-based
Conditions: added after current measurement, all groups
Description: The changes in chloride transport across the bronchial epithelial cell membrane was measured by short circuit current output in a Ussing epithelial voltage clamp apparatus (i.e., a Ussing chamber). Specifically, using an established Ussing Chamber procedure (Charles River Laboratories), hCFTR mRNA encapsulated in a liposome comprising ICE, DOPE, and a PEG-modified lipid was incubated for 2 or 4 hours on the apical (mucosal) or basolateral (serosal) sides, or both sides, of human bronchial epithelial cells. A buffer blank also was included as a control, for example, to assess chloride transport by endogenous CFTR in the cells. Next, Forskolin-induced chloride channel activity was measured using the Ussing chamber assay.

O=C(O)c1ccc(/C=C2\SC(=S)N(c3cccc(C(F)(F)F)c3)C2=O)cc1 [CFTR inhibitor-172]
Effect on chloride activity in Ussing chamber: inhibited
